Common to all, as to type: in vivo
The test system of assay [1] is Cucurbit Leaf Beetle (Aulacophora femoralis). In words: Cucurbit leaf beetle (Aulacophora femoralis) cucumber leaf dip test. To be noted: after 7 days. A digest of the protocol: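 Cucumber leaves dipped in compound formulated with DMF and polyoxyethylene alkyl phenyl ether, diluted in water, with ammonium salt or ammonium salt plus penetration enhancer at 1000 ppm added if necessary; dried leaves placed on sterilized soil with five second-instar larvae. Kept at 25° C; larval mortality counted after 7 days.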

For assay [2], the system named is Two-Spotted Spider Mite (Tetranychus urticae). In words: Two-spotted spider mite (Tetranychus urticae) spray test on kidney bean. To be noted: after 7 days. A digest of the protocol:
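Kidney bean plants at the two-leaf stage carried 50-100 adult mites and were sprayed one day later with compound in DMF/polyoxyethylene alkyl phenyl ether diluted in water. Ammonium salt and penetration enhancer at 1000 ppm were added if needed. Acaricidal activity (% mites killed) was scored after 7 days in a greenhouse.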

Assay [3] deals with Larvae of Spodoptera litura. In words: Larvae of Spodoptera litura, method using artificial feeds. The following applies: artificial feed, after 7 days. Summed up:
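Compound formulated in dimethylformamide with polyoxyethylene alkyl phenyl ether emulsifier, water-diluted and poured onto artificial diet. Five 3rd-instar Spodoptera litura larvae per cup, held at 25° C and 50-60% humidity. Mortality after 7 days expressed as pesticidal ratio.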

The mark [4] stands for this setting: active compound concentration 20 ppm.
Setting [5] is: active compound concentration 4 ppm.

In assay [1] (setting [4]), `O=C(CC(F)(F)F)NCc1ccc(N2CCC(c3cc(C(F)(F)F)cc(C(F)(F)F)c3)(C(F)(F)F)C2O)nc1C(F)(F)F` (centres unmarked) [A3-29] showed an insecticidal activity of 100%. Moreover, the acaricidal activity in assay [2] (setting [4]) turned out to be 100%. For the same molecule, the “insecticidal activity (pesticidal ratio)” value in assay [3] (setting [4]) worked out at 100%.
For `CS(=O)(=O)CC(=O)NCc1ccc(N2CCC(c3cc(C(F)(F)F)cc(C(F)(F)F)c3)(C(F)(F)F)C2O)nc1C(F)(F)F` (centres unmarked) [A3-33], the insecticidal activity in assay [1] (setting [4]) turned out to be 100%. This molecule came in with an acaricidal activity in assay [2] (setting [4]) of 100%. In addition, in assay [3] (setting [4]), the “insecticidal activity (pesticidal ratio)” value was 100%.
`Cc1nc(N2CCC(c3cc(Cl)c(Cl)c(Cl)c3)(C(F)(F)F)C2O)ccc1CNC(=O)C1CC1` (centres unmarked) [A3-82]: the insecticidal activity in assay [1] (setting [4]) came out at 100%. Besides, the acaricidal activity in assay [2] (setting [4]) is recorded as 100%. The “insecticidal activity (pesticidal ratio)” value in assay [3] (setting [4]) was 100%.
`Cc1nc(N2CCC(c3cc(Cl)c(Cl)c(Cl)c3)(C(F)(F)F)C2O)ccc1CNC(=O)CC(F)(F)F` (centres unmarked) [A3-84] registered an insecticidal activity in assay [1] (setting [4]) of 100%. For the same molecule, in assay [2] (setting [4]), the acaricidal activity is recorded as 100%. The “insecticidal activity (pesticidal ratio)” value in assay [3] (setting [4]) is 100%.
The molecule `O=C(NCc1ccc(N2CCC(c3cc(Cl)c(Cl)c(Cl)c3)(C(F)(F)F)C2O)nc1Br)C1CC1` (centres unmarked) [A3-115] displayed an insecticidal activity in assay [1] (setting [4]) of 100%. For the same molecule, the acaricidal activity in assay [2] (setting [4]) is 100%. Besides, in assay [3] (setting [4]), the “insecticidal activity (pesticidal ratio)” value came out at 100%.
`O=C(CC(F)(F)F)NCc1ccc(N2CCC(c3cc(Cl)c(Cl)c(Cl)c3)(C(F)(F)F)C2O)nc1Br` (centres unmarked) [A3-117]: in assay [1] (setting [4]), the insecticidal activity came out at 100%. Moreover, in assay [2] (setting [4]), the acaricidal activity came out at 100%. Moreover, the “insecticidal activity (pesticidal ratio)” value in assay [3] (setting [4]) is 100%.
For the molecule `CCC(=O)NCc1ccc(N2CCC(c3cc(C(F)(F)F)cc(C(F)(F)F)c3)(C(F)(F)F)C2O)nc1C` (centres unmarked) [A3-123], the insecticidal activity in assay [1] (setting [4]) came out at 100%. Besides, in assay [2] (setting [4]), the acaricidal activity is reported as 100%. For the same molecule, in assay [3] (setting [4]), the “insecticidal activity (pesticidal ratio)” value is given as 100%.
With `Cc1nc(N2CCC(c3cc(C(F)(F)F)cc(C(F)(F)F)c3)(C(F)(F)F)C2O)ccc1CNC(=O)CC1CC1` (centres unmarked) [A3-127], the insecticidal activity in assay [1] (setting [5]) and in assay [1] (setting [4]) was 100% each time. Moreover, the acaricidal activity in assay [2] (setting [5]) and in assay [2] (setting [4]) was 100% in each case. Besides, the “insecticidal activity (pesticidal ratio)” value in assay [3] (setting [5]) is given as 80%.
In turn, `Cc1nc(N2CCC(c3cc(C(F)(F)F)cc(C(F)(F)F)c3)(C(F)(F)F)C2O)ccc1CNC(=O)CC(F)(F)F` (centres unmarked) [A3-128] registered an insecticidal activity in assay [1] (setting [4]) of 100%. The molecule also showed an acaricidal activity in assay [2] (setting [4]) of 100%. Besides, in assay [3] (setting [4]), the “insecticidal activity (pesticidal ratio)” value came to 100%.
In turn, `CCc1nc(N2CCC(c3cc(C(F)(F)F)cc(C(F)(F)F)c3)(C(F)(F)F)C2O)ccc1CNC(=O)C1CC1` (centres unmarked) [A3-137] had an insecticidal activity in assay [1] (setting [4]) of 100%. This molecule had an acaricidal activity in assay [2] (setting [4]) of 100%. The “insecticidal activity (pesticidal ratio)” value in assay [3] (setting [4]) was determined as 100%.
In assay [1] (setting [4]), `O=C(NCc1ccc(N2CCC(c3cc(C(F)(F)F)cc(C(F)(F)F)c3)(C(F)(F)F)C2O)nc1Br)C1CC1` (centres unmarked) [A3-159] came in with an insecticidal activity of 100%. In assay [2] (setting [4]), this molecule registered an acaricidal activity of 100%. Moreover, in assay [3] (setting [4]), the “insecticidal activity (pesticidal ratio)” value came out at 100%.
Regarding `O=C(CC(F)(F)F)NCc1ccc(N2CCC(c3cc(C(F)(F)F)cc(C(F)(F)F)c3)(C(F)(F)F)C2O)nc1Br` (centres unmarked) [A3-161, N-[(6-{3-[3,5-bis(trifluoromethyl)phenyl]-2-hydroxy-3-(trifluoromethyl)pyrrolidin-1-yl}-2-bromopyridin-3-yl)methyl]-3,3,3-trifluoropropanamide], the pest or weed control at 20 ppm in assay [1] (Aulacophora, foliar, 168 h, active compound concentration 20 ppm, read-out: insecticidal activity) stood at 100%; in assay [2] (Tetranychus urticae, 168 h, active compound concentration 20 ppm, read-out: acaricidal activity) it was 100%; in assay [3] (Spodoptera litura, 168 h, active compound concentration 20 ppm, read-out: insecticidal activity (pesticidal ratio)), 100%.
`O=C(NCc1ccc(N2CCC(c3cc(Cl)c(F)c(Cl)c3F)(C(F)(F)F)C2O)nc1Br)C1CC1` (centres unmarked) [A3-326] had an insecticidal activity in assay [1] (setting [5]) of 100%. This molecule also displayed an acaricidal activity in assay [2] (setting [4]) of 100%. Also, the “insecticidal activity (pesticidal ratio)” value in assay [3] (setting [5]) is 100%.
The molecule `CC(=O)NCc1ccc(N2CCC(c3cc(Cl)cc(Cl)c3F)(C(F)(F)F)C2O)nc1C(F)(F)F` (centres unmarked) [A3-344] came in with an insecticidal activity in assay [1] (setting [5]) of 100%. Moreover, the acaricidal activity in assay [2] (setting [4]) is recorded as 100%. Further, in assay [3] (setting [5]), the “insecticidal activity (pesticidal ratio)” value is recorded as 100%.

The values are drawn from patent US9375000B2, “Pesticidal arylpyrrolidines” (Bayer Intellectual Property GmbH, priority 2011, dated 2016).
